Data from patent publication US20260285850A1, “SUBSTITUTED OXAZOLIDINONES AND IMIDAZOLINONES AS HERBICIDES” (FMC CORPORATION, priority 2023, published 2026).

Key:
Type in all cases: in vivo
[1] = tested on: barnyardgrass (Echinochloa crus-galli); assay: Test A preemergence soil spray, visual injury rating 0-100; conditions: 10 days
Method in brief: (§1)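 Directed preemergence spray onto seeded soil or postemergence spray onto 2-10 cm plants (loam plus sand); compound carried in surfactant-containing non-phytotoxic solvent. Injury rated by eye after 10 d greenhouse growth; 0 = no effect, 100 = complete control.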

[2] = tested on: blackgrass (Alopecurus myosuroides); assay: as above; conditions: 10 days
Method in brief: as §1

[3] = tested on: corn (Zea mays); assay: as above; conditions: 10 days
Method in brief: as §1

[4] = tested on: green foxtail (Setaria viridis); assay: as above; conditions: 10 days
Method in brief: as §1

[5] = tested on: kochia (Bassia scoparia); assay: as above; conditions: 10 days
Method in brief: as §1

[6] = tested on: oat, wild (wild oat, Avena fatua); assay: as above; conditions: 10 days
Method in brief: as §1

[7] = tested on: palmer (palmer amaranth, palmer pigweed, Amaranthus palmeri); assay: as above; conditions: 10 days
Method in brief: as §1

[8] = tested on: ragweed (common ragweed, Ambrosia artemisiifolia); assay: as above; conditions: 10 days
Method in brief: as §1

[9] = tested on: ryegrass, Italian (italian ryegrass, Lolium multiflorum); assay: as above; conditions: 10 days
Method in brief: as §1

[10] = tested on: soybean (Glycine max); assay: as above; conditions: 10 days
Method in brief: as §1

[11] = tested on: wheat (Triticum aestivum); assay: as above; conditions: 10 days
Method in brief: as §1

[12] = tested on: barnyardgrass (Echinochloa crus-galli); assay: Test A postemergence application, visual injury rating 0-100
Method in brief: as §1

[13] = tested on: blackgrass (Alopecurus myosuroides); assay: as above
Method in brief: as §1

[14] = tested on: corn (Zea mays); assay: as above
Method in brief: as §1

[15] = tested on: galium (catchweed bedstraw, Galium aparine); assay: as above
Method in brief: as §1

[16] = tested on: green foxtail (Setaria viridis); assay: as above
Method in brief: as §1

[17] = tested on: horseweed (Erigeron canadensis); assay: as above
Method in brief: as §1

[18] = tested on: kochia (Bassia scoparia); assay: as above
Method in brief: as §1

[19] = tested on: oat, wild (wild oat, Avena fatua); assay: as above
Method in brief: as §1

[20] = tested on: palmer (palmer amaranth, palmer pigweed, Amaranthus palmeri); assay: as above
Method in brief: as §1

[21] = tested on: ragweed (common ragweed, Ambrosia artemisiifolia); assay: as above
Method in brief: as §1

[22] = tested on: ryegrass, Italian (italian ryegrass, Lolium multiflorum); assay: as above
Method in brief: as §1

[23] = tested on: soybean (Glycine max); assay: as above
Method in brief: as §1

[24] = tested on: wheat (Triticum aestivum); assay: as above
Method in brief: as §1

[25] = tested on: barnyardgrass (Echinochloa crusgalli); assay: Test B flooded paddy test, visual plant response rating 0-100; conditions: 250 g ai/ha, Flood, applied to paddy water, evaluated after 13 days
Method in brief: (§2)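 Visual scores versus untreated controls were recorded 13 days after treatment of greenhouse-held plants. At the 2-leaf stage, pots were flooded 3 cm above the soil surface and compounds added straight to the water.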

[26] = tested on: ducksalad (Heteranthera limosa); assay: as above; conditions: 250 g ai/ha, Flood, applied to paddy water, evaluated after 13 days
Method in brief: as §2

[27] = tested on: rice (Oryza sativa); assay: as above; conditions: 250 g ai/ha, Flood, applied to paddy water, evaluated after 13 days
Method in brief: as §2

[28] = tested on: sedge, umbrella (small-flower umbrella sedge, Cyperus difformis); assay: as above; conditions: 250 g ai/ha, Flood, applied to paddy water, evaluated after 13 days
Method in brief: as §2

[29] = 62 g ai/ha, 0 = no effect, 100 = complete control
[30] = 62 g ai/ha, postemergence, 10 days, 0 = no effect, 100 = complete control
[31] = Postemergence, 16 g ai/ha, greenhouse 10 days, 0 no effect, 100 complete control

## COC(=O)C1CC(NC(=O)C2(C)CN(c3cc(F)cc(F)c3)C(=O)O2)C1 (stereo not shown) [Compound 118, methyl 3-[[3-(3,5-difluorophenyl)-5-methyl-2-oxo-oxazolidine-5-carbonyl]amino]cyclobutanecarboxylate]
[1]; 16 g ai/ha, 0 to 100 scale
  Barnyardgrass plant response rating: 10
[1]; [29]
  Barnyardgrass plant response rating (0-100): 80
[2]; 16 g ai/ha, 0 to 100 scale
  Blackgrass plant response rating: 30
[2]; [29]
  Blackgrass plant response rating (0-100): 90
[3]; 16 g ai/ha, 0 to 100 scale
  Corn plant response rating: 30
[3]; [29]
  Corn plant response rating (0-100): 90
[4]; 16 g ai/ha, 0 to 100 scale
  Foxtail, Green plant response rating: 60
[4]; [29]
  Foxtail, Green plant response rating (0-100): 90
[5]; 16 g ai/ha, 0 to 100 scale
  Kochia plant response rating: 0
[5]; [29]
  Kochia plant response rating (0-100): 60
[6]; 16 g ai/ha, 0 to 100 scale
  Oat, Wild plant response rating: 90
[6]; [29]
  Oat, Wild plant response rating (0-100): 90
[7]; 16 g ai/ha, 0 to 100 scale
  Pigweed, Palmer plant response rating: 20
[7]; [29]
  Pigweed, Palmer plant response rating (0-100): 50
[8]; 16 g ai/ha, 0 to 100 scale
  Ragweed plant response rating: 0
[8]; [29]
  Ragweed plant response rating (0-100): 0
[9]; 16 g ai/ha, 0 to 100 scale
  Ryegrass, Italian plant response rating: 20
[9]; [29]
  Ryegrass, Italian plant response rating (0-100): 80
[10]; 16 g ai/ha, 0 to 100 scale
  Soybean plant response rating: 0
[10]; [29]
  Soybean plant response rating (0-100): 30
[11]; 16 g ai/ha, 0 to 100 scale
  Wheat plant response rating: 20
[11]; [29]
  Wheat plant response rating (0-100): 80
[12]; [30]
  Barnyardgrass plant response rating (0-100): 100
[12]; [31]
  Barnyardgrass plant response rating (0 to 100 scale): 50
[13]; [30]
  Blackgrass plant response rating (0-100): 100
[13]; [31]
  Blackgrass plant response rating (0 to 100 scale): 90
[14]; [30]
  Corn plant response rating (0-100): 100
[14]; [31]
  Corn plant response rating (0 to 100 scale): 90
[15]; [30]
  Galium plant response rating (0-100): 60
[15]; [31]
  Galium plant response rating (0 to 100 scale): 50
[16]; [30]
  Foxtail, Green plant response rating (0-100): 90
[16]; [31]
  Foxtail, Green plant response rating (0 to 100 scale): 90
[17]; [30]
  Horseweed plant response rating (0-100): 0
[17]; [31]
  Horseweed plant response rating (0 to 100 scale): 0
[18]; [30]
  Kochia plant response rating (0-100): 70
[18]; [31]
  Kochia plant response rating (0 to 100 scale): 30
[19]; [30]
  Oat, Wild plant response rating (0-100): 90
[19]; [31]
  Oat, Wild plant response rating (0 to 100 scale): 30
[20]; [30]
  Pigweed, Palmer plant response rating (0-100): 70
[20]; [31]
  Pigweed, Palmer plant response rating (0 to 100 scale): 20
[21]; [30]
  Ragweed plant response rating (0-100): 50
[21]; [31]
  Ragweed plant response rating (0 to 100 scale): 30
[22]; [30]
  Ryegrass, Italian plant response rating (0-100): 80
[22]; [31]
  Ryegrass, Italian plant response rating (0 to 100 scale): 20
[23]; [30]
  Soybean plant response rating (0-100): 60
[23]; [31]
  Soybean plant response rating (0 to 100 scale): 60
[24]; [30]
  Wheat plant response rating (0-100): 90
[24]; [31]
  Wheat plant response rating (0 to 100 scale): 80
[25]
  Plant response rating, Barnyardgrass (0 to 100 scale, 0 is no effect and 100 is complete control): 0
[26]
  Plant response rating, Ducksalad (0 to 100 scale, 0 is no effect and 100 is complete control): 0
[27]
  Plant response rating, Rice (0 to 100 scale, 0 is no effect and 100 is complete control): 0
[28]
  Plant response rating, Sedge, Umbrella (0 to 100 scale, 0 is no effect and 100 is complete control): 0
